Source: US6469010B1, “Medicament for the alleviation or treatment of symptom derived from the ischemic disease and compound useful thereof” (Suntory Limited, priority 1995, dated 2002)

What was measured:
[1] = tested on: Na+ channel; assay: Veratridine-induced sodium channel activity inhibiting action (membrane potential of synaptosomes, Rhodamine 6G); type: biochemical, Wistar rats; conditions: 0.1 μM of compound; rat brain synaptosomes, veratridine-induced depolarization
Description: Veratridine-induced Sodium Channel Activity Inhibiting Action
The membrane potential of the synaptosomes prepared from the brain membrane of Wistar rats (male, 10 to 12 weeks old) was measured by the method of Aiuchi et al. [T. Aiuchi et al: Biochimi. Biophys. Acta.

[2] = tested on: T-type Ca2+ channel; assay: T-type calcium channel inhibiting action (whole-cell patch clamp, hippocampal CA1 pyramidal cells); type: cell-based, Wistar rats; conditions: rat hippocampal CA1 pyramidal cells; suppression of peak current after one minute of application
Description: T-Type Calcium Channel Inhibiting Action
The hippocampal CA1 pyramidal cells were isolated from Wistar rats (female, 1 week old) in accordance with the method of Takahashi et al. K. Takahashi et al.; J Pharmacol. Exp; Ther., 256, 169 (1991)] and the T-type calcium current under conditions of a fixed membrane potential was measured using the whole-cell configuration of the pach clamp technique. The effects of the compounds were evaluated from the rate of suppression of the peak current after one minute of application using the concentration clamp method.

[3] = tested on: DBA/2N mice; assay: Audiogenic seizure suppressing action; type: in vivo; conditions: Mus musculus, ip, 20 min; compound 10 mg/kg, i.p.; audio stimulus after 20 minutes; suppression of average seizure score; read-out: Antiseizure action (suppression rate %)
Description: Audiogenic Seizure Suppressing Action
The audiogenic seizure suppressing action of the compounds was evaluated by the method of Sarro et al. [G. B. De Sarro et al.; Br. J. Pharmacol., 93, 247 (1988)]. That is, DBA/2N mice (male, 3 weeks) were administered with the compound dissolved in 10% 2-hydroxypropyl-β-cyclodextrin intraperitoneally. After 20 minutes, a supersonic washer was used to apply audio stimulus of at least 90 dB for one minute. The wild running (WR), clonic seizures (clonus), tonic seizures (tonus), and respiratory arrest (RA) were evaluated. The seizure suppressing action was evaluated from the rate or suppression of the average value of the seizure score found from 0=no response, 1=WR, 2=clonus, 3=tonus, and 4=RA.

[4] = biological target: T1, Dopamine D2 receptor (Rattus norvegicus, UniProt P61169); assay: Dopamine D2 receptor blocking action ([3H]raclopride binding, striatum membrane fraction); set-up: species or system Wister male rats; conditions: 1.0 nM [3H]raclopride, 25° C., one hour
T1 construct: membrane fraction prepared from the striatum of Wister male rats; from tissue; host or cells: rat striatum membrane fraction
T1 sequence (P61169 whole entry): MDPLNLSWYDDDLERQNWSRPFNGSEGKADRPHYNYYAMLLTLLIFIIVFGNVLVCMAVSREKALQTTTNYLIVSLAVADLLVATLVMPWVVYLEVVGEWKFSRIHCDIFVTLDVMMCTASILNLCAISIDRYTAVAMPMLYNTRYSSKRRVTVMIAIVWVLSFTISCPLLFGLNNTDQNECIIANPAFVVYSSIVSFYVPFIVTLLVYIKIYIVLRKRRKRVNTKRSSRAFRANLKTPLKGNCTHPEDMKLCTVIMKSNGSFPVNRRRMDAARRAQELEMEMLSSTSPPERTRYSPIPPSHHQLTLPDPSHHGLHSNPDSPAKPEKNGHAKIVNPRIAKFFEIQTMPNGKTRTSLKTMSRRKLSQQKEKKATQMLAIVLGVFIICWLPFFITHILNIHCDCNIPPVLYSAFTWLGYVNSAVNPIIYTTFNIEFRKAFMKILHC
Description: Dopamine D2 Receptor Blocking Action
57 μl of the membrane fraction prepared from the striatum of Wister male rats,(6 weeks old) was incubated in a buffer at 25° C. for one hour along with the compound and 1.0 nM [^3H) raclopride. A GF/C glass filter (0.1% polyethylene imine treatment) was used for separation of the B and F, then the radioactivity was measured by a beta plate and the effect of the compound was evaluated.

[5] = Acute toxicity test; conditions: male, mouse, in vivo, iv, ddY mice, death rate up to 24 hours after administration
Description: Medicine was intravenously administered to ddY mice (male, 6 weeks old). The 50 percent lethal dosage LD50 of the acute toxicity was calculated by an ordinary method from the death rate up to 24 hours after administration.

| SMILES | Antiveratridine action (inhibiting rate %) [1] [%] | IC50 [2] [µM] | inhibition in vivo at 10 mg/kg [3] [%] | IC50 [4] [µM] | LD50 at 24 h [5] [mg/kg] |
| --- | --- | --- | --- | --- | --- |
| Fc1ccc(Cc2ccc(C3CCN(C/C=C/c4ccccc4)CC3)cc2)cc1 [Compound 32, (E)-4-[4-(4-fluorophenyl)methylphenyl]-1-(3-phenyl-2-propenyl)piperidine] | 33.3 | 0.6 | 94 | 3.36 | 32.9 |
| Fc1ccc(/C=C/CN2CCN(c3ccc(Cc4ccc(F)cc4)cc3)CC2)cc1 [Compound 50, (E)-1-[4-(4-fluorophenyl)methylphenyl]-4-[3-(4-fluorophenyl)-2-propenyl]-piperazine] | – | 4.2 | 72 | – | – |
| COc1ccc(Cc2ccc(C3CCN(C/C=C/c4ccccc4)CC3)cc2)cc1 [Compound 75, 4-[4-(4-methoxyphenyl)methylphenyl]-(E)-1-(3-phenyl-2-propenyl)piperidine] | 55.2 | 1.4 | 99 | – | – |
| COc1cc(/C=C/CN2CCN(c3ccc(Cc4ccc(F)cc4)cc3)CC2)ccc1O [Compound 49] | 17.3 | – | 60 | 0.987 | – |
| c1ccc(Oc2ccc(C3CCN(C[C@@H]4C[C@H]4c4ccccc4)CC3)cc2)cc1 (relative stereo) [Compound 26, 4-(phenoxyphenyl)-1-[trans-(2-phenyl)cyclopropylmethyl]piperidine] | 36.5 | 2.8 | 78 | 3.37 | 32.9 |
| C(=C\c1ccccc1)/CN1CCC(c2ccc(Oc3ccccc3)cc2)CC1 [Compound 21, (E)-4-(4-phenoxyphenyl)-1-(3-phenyl-2-propenyl)piperidine] | 20.3 | 0.8 | 77.3 | 2.68 | 40.9 |
| OC(COc1ccccc1)CN1CCC(c2ccc(Oc3ccccc3)cc2)CC1 (stereo not shown) [Compound 80, 1-(2-hydroxy-3-phenoxy)propyl-4-(4-phenoxyphenyl)piperidine] | 49.7 | 1.9 | 66.3 | – | – |
| OC(CN1CCC(c2ccc(Cc3ccc(F)cc3)cc2)CC1)c1ccccc1 (stereo not shown) [Compound 79, 4-[4-(4-fluorophenyl)methylphenyl]-1-(2-hydroxy-2-phenyl)ethylpiperidine] | 37.1 | 3.1 | 79.8 | – | – |
| c1ccc(Oc2ccc(C3CCN(CC4(c5ccccc5)OCCO4)CC3)cc2)cc1 [Compound 73, 2-[4-(4-phenoxyphenyl)piperidin-1-yl]methyl-2-phenyl-1,3-dioxolane] | 16.1 | 4.6 | 52.2 | – | – |
| Fc1ccc(Cc2ccc(N3CCN(C/C=C/c4ccccc4)CC3)cc2)cc1 [Compound 47] | 22.9 | 2.7 | 64.1 | 3.96 | 43.2 |
